In the experiment the target is CDK2/Cyclin E1 full length (Homo sapiens (Human), UniProt P24941). Nature of the experiment: CDK2/Cyclin E1 full length mobility shift assay. In kind it is biochemical.
Procedure: Cdk2/Cyclin E1 Full Length Mobility Shift Assay
Wild-type CDK2/wild-type full length Cyclin E1 enzyme complex was produced in-house (baculoviral expression, LJIC-2080/LJIC-2103) and phosphorylated by CDK7/Cyclin H1/Matl enzyme complex with CDK2:CDK7 ratio of 50:1 (concentration mg/mL) in the presence of 10 mM MgCl2 and 5 mM ATP at room temperature for one hour. […] The assay was initiated with the addition of ATP, following a fifteen minutes pre-incubation of enzyme and inhibitor at room temperature in the reaction mixture. The reaction was stopped after 45 minutes at room temperature by the addition of 50 μL of 80 mM EDTA.
As usually defined, the Ki is the equilibrium dissociation constant of an inhibitor or competing ligand from its target. For `CC(C)NC(=O)O[C@@H]1CC[C@H](c2cc(NC(=O)C3COc4ccccc43)n[nH]2)C1` (single isomer, unassigned) [Example 57], the Ki amounted to 3.54 nM.

In the case of `CC(CC(F)(F)F)NC(=O)O[C@@H]1CC[C@H](c2cc(NC(=O)Cc3ccon3)n[nH]2)C1` (single isomer, unassigned) [Example 63], the Ki worked out at 1.25 nM.

On to `CC(CC(F)(F)F)NC(=O)O[C@@H]1CC[C@H](c2cc(NC(=O)Cc3ccn(C)n3)n[nH]2)C1` (single isomer, unassigned) [Example 65], for which the Ki is 2.21 nM.

As for `COc1cnc(CC(=O)Nc2cc([C@H]3CC[C@@H](OC(=O)NC(C)CC(F)(F)F)C3)[nH]n2)cn1` (single isomer, unassigned) [Example 67], the Ki was determined as 1.5 nM.

For `Cc1ccc(C(=O)Nc2cc([C@H]3CC[C@@H](OC(=O)NC(C)CC(F)(F)F)C3)[nH]n2)cn1` (single isomer, unassigned) [Example 69], the Ki is 4.26 nM.

With `Cc1cnc(CC(=O)Nc2cc([C@H]3CC[C@@H](OC(=O)NC(C)CC(F)(F)F)C3)[nH]n2)cn1` (single isomer, unassigned) [Example 73], the inhibitory constant (Ki) stood at 2.31 nM.

As for `CC(CC(F)(F)F)NC(=O)O[C@@H]1CC[C@H](c2cc(NC(=O)Cc3ccno3)n[nH]2)C1` (single isomer, unassigned) [Example 85], the Ki stood at 1.06 nM.

For `COCCn1nccc1C(=O)Nc1cc([C@H]2CC[C@@H](OC(=O)NC(C)CC(F)(F)F)C2)[nH]n1` (single isomer, unassigned) [Example 87], the Ki was 1.32 nM.

With `COCCn1nccc1C(=O)Nc1cc([C@H]2CC[C@@H](OC(=O)NC(C)CC(F)(F)F)C2)[nH]n1` (single isomer, unassigned) [Example 88], the Ki came out at 0.15 nM.

Take `CC(CC(F)(F)F)N(C)C(=O)O[C@@H]1CC[C@H](c2cc(NC(=O)Cc3ccno3)n[nH]2)C1` (single isomer, unassigned) [Example 89]: the Ki is 0.85 nM.

In the case of `Cc1cnc(CC(=O)Nc2cc([C@H]3CC[C@@H](OC(=O)NC(C)CC(F)F)C3)[nH]n2)o1` (single isomer, unassigned) [Example 96], the Ki worked out at 2.05 nM.

In the case of `COc1cc(CC(=O)Nc2cc([C@H]3CC[C@@H](OC(=O)NC(C)CC(F)F)C3)[nH]n2)ccn1` (single isomer, unassigned) [Example 99], the Ki is 0.09 nM.

As for `CC1(NC(=O)O[C@@H]2CC[C@H](c3cc(NC(=O)Cc4ccccc4)n[nH]3)C2)CCOC1` (single isomer, unassigned) [Example 125], the Ki came out at 0.34 nM.

With `COc1ccc(CC(=O)Nc2cc([C@H]3CC[C@@H](OC(=O)N4CCC4C)C3)[nH]n2)cn1` (single isomer, unassigned) [Example 152], the Ki came out at 1.06 nM.

For `COc1cc(CC(=O)Nc2cc([C@H]3CC[C@@H](OC(=O)N4CCC4C)C3)[nH]n2)ccn1` (single isomer, unassigned) [Example 154], the Ki stood at 1.77 nM.

Regarding `COc1cc(CC(=O)Nc2cc([C@H]3CC[C@@H](OC(=O)N4C[C@@H](C#N)[C@@H]4C)C3)[nH]n2)ccn1` (single isomer, unassigned) [Example 156], the Ki was 2.21 nM.

Turning to `COc1ccc(CC(=O)Nc2cc([C@H]3CC[C@@H](OC(=O)N4C[C@@H](C#N)[C@@H]4C)C3)[nH]n2)cn1` (single isomer, unassigned) [Example 157], the Ki came out at 1.86 nM.

For the molecule `Cc1ncc(CC(=O)Nc2cc([C@H]3CC[C@@H](OC(=O)N4C[C@@H](C#N)[C@@H]4C)C3)[nH]n2)s1` (single isomer, unassigned) [Example 159], the Ki is 3.63 nM.

Regarding `C[C@H]1[C@H](C#N)CN1C(=O)O[C@@H]1CC[C@H](c2cc(NC(=O)Cc3ccccc3)n[nH]2)C1` (single isomer, unassigned) [Example 162], the Ki stood at 3.01 nM.

Regarding `CCCNC(=O)O[C@@H]1CC[C@H](c2cc(NC(=O)Cc3ccccc3S(C)(=N)=O)n[nH]2)C1` (single isomer, unassigned) [Example 201], the Ki was found to be 1.91 nM.

`CCCNC(=O)O[C@@H]1CC[C@H](c2cc(NC(=O)Cc3ccccc3S(C)(=N)=O)n[nH]2)C1` (single isomer, unassigned) [Example 202]: the inhibition constant (Ki) was 1.85 nM.

Take `COc1ccc(S(C)(=O)=O)c(CC(=O)Nc2cc([C@H]3CC[C@@H](OC(=O)NC(C)C(F)(F)F)C3)[nH]n2)c1` (single isomer, unassigned) [Example 292]: the Ki came to 0.86 nM.

Consider `CC[C@H](C)NC(=O)O[C@@H]1CC[C@H](c2cc(NC(=O)Cc3ccccc3S(C)(=N)=O)n[nH]2)C1` (single isomer, unassigned) [Example 368], for which the Ki stood at 0.41 nM.

On to `CC[C@H](C)NC(=O)O[C@@H]1CC[C@H](c2cc(NC(=O)Cc3ccccc3S(C)(=N)=O)n[nH]2)C1` (single isomer, unassigned) [Example 369], for which the Ki is 0.84 nM.

For the molecule `C[C@H](F)[C@H](C)NC(=O)O[C@@H]1CC[C@H](c2cc(NC(=O)Cc3cnn(C)c3)n[nH]2)C1` (single isomer, unassigned) [Example 381, (1R,3S)-3-(3-{[(1-methyl-1H-pyrazol-4-yl)acetyl]amino}-1H-pyrazol-5-yl)cyclopentyl [(2S*,3S*)-3-fluorobutan-2-yl]carbamate], the Ki came out at 3.11 nM.

As for `COc1cc(CC(=O)Nc2cc([C@H]3CC[C@@H](OC(=O)N[C@@H](C)[C@H](C)F)C3)[nH]n2)ccn1` (single isomer, unassigned) [Example 384, (1R,3S)-3-(3-{[(2-methoxypyridin-4-yl)acetyl]amino}-1H-pyrazol-5-yl)cyclopentyl [(2S*,3S*)-3-fluorobutan-2-yl]carbamate], the Ki stood at 1.24 nM.

Consider `CC(CC(F)F)NC(=O)O[C@@H]1CC[C@H](c2cc(NC(=O)Cc3cnn(C)c3)n[nH]2)C1` (single isomer, unassigned) [Example 387], for which the Ki came to 0.3 nM.

As to `Cc1ncc(CC(=O)Nc2cc([C@H]3CC[C@@H](OC(=O)NC(C)C(C)(F)F)C3)[nH]n2)s1` (single isomer, unassigned) [Example 390], the Ki amounted to 3.74 nM.

Take `COc1cc(CC(=O)Nc2cc([C@H]3CC[C@@H](OC(=O)NC(C)C(C)(F)F)C3)[nH]n2)ccn1` (single isomer, unassigned) [Example 392]: the Ki was determined as 3.14 nM.

On to `Cc1c(CC(=O)Nc2cc([C@H]3CC[C@@H](OC(=O)NC(C)CC(F)(F)F)C3)[nH]n2)cnn1C` (single isomer, unassigned) [Example 400], for which the Ki worked out at 1.29 nM.

Take `CC(CC(F)(F)F)NC(=O)O[C@@H]1CC[C@H](c2cc(NC(=O)Cc3cnn(C(C)C)c3)n[nH]2)C1` (single isomer, unassigned) [Example 407]: the Ki was found to be 1.16 nM.

On to `CC(CC(F)(F)F)NC(=O)O[C@@H]1CC[C@H](c2cc(NC(=O)c3ccnn3CCN(C)C)[nH]n2)C1` (single isomer, unassigned) [Example 409], for which the Ki came out at 4.15 nM.

On to `CC(CC(F)(F)F)N(C)C(=O)O[C@@H]1CC[C@H](c2cc(NC(=O)c3cnnn3C)n[nH]2)C1` (single isomer, unassigned) [Example 411], for which the Ki turned out to be 2.58 nM.

Take `CC(CC(F)(F)F)N(C)C(=O)O[C@@H]1CC[C@H](c2cc(NC(=O)c3cnnn3C)n[nH]2)C1` (single isomer, unassigned) [Example 412]: the Ki came to 0.19 nM.

Turning to `CC1(NC(=O)O[C@@H]2CC[C@H](c3cc(NC(=O)Cc4ccno4)n[nH]3)C2)CCOC1` (single isomer, unassigned) [Example 474], the inhibitory constant (Ki) is 0.44 nM.

Regarding `Cc1cnc(CC(=O)Nc2cc([C@H]3CC[C@@H](OC(=O)NC4(C)CCOC4)C3)[nH]n2)o1` (single isomer, unassigned) [Example 478], the Ki came to 1.13 nM.

With `COc1cc(C(=O)Nc2cc([C@H]3CC[C@@H](OC(=O)NC4(C)CCOC4)C3)[nH]n2)n(C)n1` (single isomer, unassigned) [Example 479], the Ki is 0.89 nM.

Take `COc1cc(C(=O)Nc2cc([C@H]3CC[C@@H](OC(=O)NC4(C)CCOC4)C3)[nH]n2)n(C)n1` (single isomer, unassigned) [Example 480]: the Ki stood at 2.01 nM.

For the molecule `COc1ccc(CC(=O)Nc2cc([C@H]3CC[C@@H](OC(=O)NC4(C)CCOC4)C3)[nH]n2)cc1` (single isomer, unassigned) [Example 483], the inhibitory constant (Ki) is 0.32 nM.

For the molecule `COc1cnc(CC(=O)Nc2cc([C@H]3CC[C@@H](OC(=O)NC4(C)CCOC4)C3)[nH]n2)cn1` (single isomer, unassigned) [Example 485], the Ki worked out at 1.41 nM.

On to `COc1cnc(CC(=O)Nc2cc([C@H]3CC[C@@H](OC(=O)NC4(C)CCOC4)C3)[nH]n2)cn1` (single isomer, unassigned) [Example 486], for which the Ki was found to be 1.46 nM.

Take `COCc1cc(C(=O)Nc2cc([C@H]3CC[C@@H](OC(=O)NC4(C)CCOC4)C3)[nH]n2)n(C)n1` (single isomer, unassigned) [Example 488]: the Ki stood at 1.4 nM.

On to `CC1(NC(=O)O[C@@H]2CC[C@H](c3cc(NC(=O)CC4COc5ccccc54)n[nH]3)C2)CCOC1` (single isomer, unassigned) [Example 489], for which the Ki was found to be 3.71 nM.

`CC1(NC(=O)O[C@@H]2CC[C@H](c3cc(NC(=O)CC4COc5ccccc54)n[nH]3)C2)CCOC1` (single isomer, unassigned) [Example 490]: the Ki came to 3.68 nM.

As for `CC1(NC(=O)O[C@@H]2CC[C@H](c3cc(NC(=O)CC4COc5ccccc54)n[nH]3)C2)CCOC1` (single isomer, unassigned) [Example 492], the Ki came out at 2.39 nM.

For `Cn1ncc(CC(=O)Nc2cc([C@H]3CC[C@@H](OC(=O)NC4(C)CCOC4)C3)[nH]n2)c1C(F)(F)F` (single isomer, unassigned) [Example 495], the Ki was found to be 1.79 nM.

With `Cn1ncc(CC(=O)Nc2cc([C@H]3CC[C@@H](OC(=O)NC4(C)CCOC4)C3)[nH]n2)c1C(F)(F)F` (single isomer, unassigned) [Example 496], the Ki is 2.25 nM.

Take `O=C(Cc1cc(F)cc(F)c1)Nc1cc([C@@H]2CC[C@H](OC(=O)NCC3CCCOC3)C2)[nH]n1` (single isomer, unassigned) [Example 516]: the Ki worked out at 3.24 nM.

Consider `CCC(CO)CNC(=O)O[C@@H]1CC[C@H](c2cc(NC(=O)Cc3cnc(C)o3)n[nH]2)C1` (single isomer, unassigned) [Example 526], for which the Ki came to 3.95 nM.

The values are drawn from patent publication US11014911B2, “CDK2 inhibitors” (Pfizer Inc., priority 2019, dated 2021).
